Laboratory results: patent US12606529B2, “Sulfur and amide tropolone inhibitors of nucleotidyl transferases and uses therefor” (Saint Louis University, priority 2019, dated 2026)
≈ marks a conversion by molar mass, not a printed value. Like-named read-outs stand apart in the source and are kept apart here.

Columns and labels:
[1] = test system: HBV replication; assay: HBV replication inhibition in HepDES19 cells (strand-preferential qPCR); conditions: for EC50: Hepatitis B virus; for SI (CC50/EC50): cytotoxicity CC50 over HBV replication EC50
Description: Cells used for toxicity and HBV studies.
HBV replication inhibition studies. HepDES19 cells were seeded in 96-well plates at 4×10^4 cells per well in the absence of tetracycline. Test compounds in a final DMSO concentration of 1% were applied to cells 48 hours after induction of HBV replication and cells were incubated with compounds for 72 hours. Cells were washed in 200 μL of phosphate buffered saline (PBS) and lysed in 150 μL of core lysis buffer (10 mM Tris pH 7.4, 1% Tween20, 150 mM NaCl). Cells were incubated at room temperate on an orbital shaker at 350 rpm for 40 minutes. Cell lysate was transferred to a 96 well polymerase chain reaction (PCR) plate and centrifuged at 3300×g for 5 minutes. The supernatant (50 μL) from the cell lysate was transferred to a 96-well PCR plate and mixed with 20 units of micrococcal nuclease and 100 μM CaCl2. The lysate was incubated for 1 hour at 37° C., and then the nuclease was inactivated at 70° C. for ten minutes. Qiagen protease (0.005 Anson units) was added to the lysate and the mixture was incubated overnight. Qiagen protease was then inactivated at 95° C. for ten minutes.
The crude lysate was used as the template for strand-preferential quantitative polymerase chain reaction (q-PCR) analysis. Quantitative PCR was performed with 40 cycles of 95° C. for 15 s and 60° C. for 1 minute employing the Kappa Probe Force universal PCR master mix.

[2] = molecular target: T1, human RNaseH1 (Homo sapiens, UniProt O60930); assay: Biochemical inhibition of human RNaseH1 activity; conditions: for SIApparent (huRH1 IC50/EC50): huRH1 IC50 over HBV replication EC50
T1 sequence (O60930 1-286): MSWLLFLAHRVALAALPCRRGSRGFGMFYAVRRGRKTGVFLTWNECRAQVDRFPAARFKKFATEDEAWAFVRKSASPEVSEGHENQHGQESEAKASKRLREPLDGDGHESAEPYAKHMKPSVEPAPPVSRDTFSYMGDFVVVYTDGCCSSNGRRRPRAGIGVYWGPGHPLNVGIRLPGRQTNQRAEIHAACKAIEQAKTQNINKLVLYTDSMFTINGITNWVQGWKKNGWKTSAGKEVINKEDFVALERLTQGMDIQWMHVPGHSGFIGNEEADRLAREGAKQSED
Outline: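 Human enzyme (0.3 μg) with 100 nM RNA:DNA molecular-beacon substrate, 50 mM HEPES pH 8.0, 100 mM NaCl, 2 mM TCEP, compounds 0 to 500 μM, 5% DMSO; started with 5 mM MgCl2, fluorescence read at 37° C. HBV enzyme (C-terminally truncated MBP-HRHgtCΔ5) run in FRET format, monitored 90 min at 37° C., initial rates calculated.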

[3] = test system: HSV-1; assay: Anti-HSV-1 replication assay (Vero cells, plaque titer); type: cell-based, herpes simplex virus 1; conditions: for log reduction at 5 µM / log reduction at 1 µM / log reduction at 0.33 µM: Human alphaherpesvirus 1, Vero, values separated by / are repeats; for log reduction at 5 µM: compound at 5 μM, read-out: HSV-1 suppression 5 μM; for log reduction at 1 µM: compound at 1 μM, read-out: HSV-1 suppression 1 μM; for log reduction at 0.33 µM: compound at 0.33 μM, read-out: HSV-1 suppression 0.33 μM
[4] = test system: C. neoformans var. grubii, KN99; assay: C. neoformans growth inhibition assay (limiting dilution); type: cell-based, Cryptococcus neoformans; conditions: Cryptococcus neoformans
Outline: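 Starting OD650 0.001 in YNB (0.2% dextrose, 50 mM MOPS, pH 7.0) with 1% DMSO; static incubation 48 h at 35° C, then shaken and read at OD650. Growth expressed as percent of DMSO control; MIC is the lowest concentration giving 80% inhibition, triplicates over at least two independent assays.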

[5] = in vitro; conditions: human, HepDES19 cells
[6] = test system: HSV-2; assay: Anti-HSV-2 replication assay (Vero cells, plaque titer); type: cell-based, herpes simplex virus 2; conditions: Table 3 sulfur compounds; compound at 5 μM
Description: HSV strains and cells used for HSV studies. […] HSV-1 and HSV-2 are de-identified clinical isolates from the Saint Louis University Hospital. Stocks were prepared after a single passage in cell culture and were titered by standard plaque assay (Knipe and Spang, 1982). Wild-type HSV-2 was laboratory strain 333. The TK-deficient mutant of HSV-2 strain 333, ΔTK−, contains a 180-bp KpnI-KpnI deletion in the UL23 open reading frame that abrogates TK activity (McDermott, et al, 1984). ΔTK− was the generous gift of Jim Smiley. Virus stocks were grown and titered on Vero cells (Morrison and Knipe, 1996).
Anti-HSV-1 and —HSV-2 replication assay. Compounds to be screened were diluted in PBS supplemented to contain 2% newborn calf serum and 1% glutamine and added in 100 μL volume to confluent cell monolayers in 24-well cluster plates Immediately thereafter HSV-1 and HSV-2, diluted in the supplemented PBS medium, were added to the wells in 50 μl volume such that the final concentration of compound was 50 μM and 5 μM and the multiplicity of infection was 0.1. The plates were incubated at 37° C. for 1 hour and then virus-containing inoculum was removed and the wells were washed once in PBS. Compounds, diluted to 50 μM and 5 μM in DMEM supplemented to contain 2% newborn calf serum and 1% each penicillin/streptomycin, were added at 0.5 mL/well. Plates were incubated at 37° C. an additional 23 hr, and then the plates were visually inspected through a phase contrast microscope for cytopathic effect, and for toxic effect. […] The entire contents of each well were collected by scraping. Samples were frozen at −80° C., and then subsequently thawed, sonicated, and infectious virus titer was determined by standard plaque assay on Vero cell monolayers. Because the compounds were dissolved at 10 mM in 100% DMSO, equivalent dilutions of DMSO were added to additional wells as a control for effects of the diluent. Each experiment was repeated once.

[7] = HepDES19, 72 h, Table 2 amides, HBV replication, HepDES19 cells, plus-polarity DNA, 72 h
[8] = HepDES19, read-out: EC50 against HBV replication
[9] = Table 2 amides, read-out: HuRH1 IC50
[10] = 48 h, Table 2 amides, 48 h, 35° C., tested 0.19 to 50 μM, read-out: C. neoformans MIC80
[11] = HepDES19, read-out: HBV EC50, Table 3 sulfur compounds, HBV replication, HepDES19 cells
[12] = Table 3 sulfur compounds, read-out: Hu RNaseH IC50
[13] = 48 h, Table 3 sulfur compounds, 48 h, 35° C., read-out: C. neoformans MIC80
[14] = CC50, Table 3 sulfur compounds, MTT

Compound	EC50 [1, 7] [µM]	IC50 [2, 9] [µM]	log reduction at 5 µM ([3]; Table 2 amides)	MIC80 [4, 10] [µM]	CC50 at 24 h ([5]; CC50 (μM), Table 2 amides, MTT) [µM]	EC50 [1, 11] [µM]	IC50 [2, 12] [µM]	log reduction at 1 µM ([3]; Table 3 sulfur compounds)	log reduction at 5 µM ([3]; Table 3 sulfur compounds)	MIC80 [4, 13] [µM]	CC50 at 24 h [5, 14] [µM]	also measured
Cc1cc(O)c(=O)c(O)cc1C(=O)N1CCCCC1 [compound 390]	0.31 ± 0.1	106 ± 64.6	0.52	22 (≈ 5.79 µg/mL)	24.9 ± 11.6	–	–	–	–	–	–	EC50 [1, 8]: 0.31 µM; CC50 at 24 h ([5]; CC50): > 20 µM
O=c1c(O)c(SCc2ccccc2)ccc(SCc2ccccc2)c1O [compound 703]	–	–	–	–	–	10.6	49.6	4.56	5.88	6.75 (≈ 2.58 µg/mL)	8.2	–
O=c1c(O)cccc(S(=O)(=O)Cc2ccccc2)c1O [compound 705]	–	–	–	–	–	2.76	135	0.19	3.55	50 (≈ 14.6 µg/mL)	8.4	–
O=c1c(O)cccc(SCCc2ccccc2)c1O [compound 704]	–	–	–	–	–	52	24.7	0.06	5.72	1.4 (≈ 0.384 µg/mL)	21.6	EC50 [1, 8]: 52 µM
CCCCCCSc1cccc(O)c(=O)c1O [compound 840]	–	–	–	–	–	50	72.8	1.52	3.69	1 (≈ 0.254 µg/mL)	21.5	log reduction at 0.33 µM ([3]; Table 3 sulfur compounds): 0.271; HSV-2 suppression 5 μM [6]: 5.59 log10; MIC80 ([4]; read-out: MIC80 against C. neoformans): ≤ 1 µM
Cc1ccc(Sc2cccc(O)c(=O)c2O)cc1 [compound 838]	–	–	–	–	–	17	100	0.05	5.33	1 (≈ 0.26 µg/mL)	18.6	HSV-2 suppression 5 μM [6]: 5.09 log10
O=c1c(O)cccc(S(=O)(=O)c2cccc3ccccc23)c1O [compound 698]	–	–	–	–	–	6.18	234	-0.35	4.85	49 (≈ 16.1 µg/mL)	14.8	log reduction at 0.33 µM ([3]; Table 3 sulfur compounds): -0.31
Cc1cc(O)c(=O)c(O)cc1C(=O)N1CCN(C2CC2)CC1 [compound 871]	1.15 ± 0.4	88.2 ± 43.3	-0.0192	50 (≈ 15.2 µg/mL)	36.6 ± 3.6	–	–	–	–	–	–	log reduction at 1 µM ([3]; Table 2 amides): -0.1
C#CCCC1(CCNC(=O)c2cc(O)c(=O)c(O)cc2C)N=N1 [compound 384]	0.66 ± 0.7	111 ± 48.8	0.77	3.5 (≈ 1.1 µg/mL)	17.6 ± 8.9	–	–	–	–	–	–	–
Cc1cc(O)c(=O)c(O)cc1C(=O)N1CCN(C(=O)C2COc3ccccc3O2)CC1 (stereo not shown) [compound 876]	0.7 ± 0.4	39.2 ± 40.6	0.273	9 (≈ 3.84 µg/mL)	9.2 ± 3.2	–	–	–	–	–	–	log reduction at 1 µM ([3]; Table 2 amides): -0.0739
O=c1c(O)cccc(S)c1O [compound 701]	–	–	–	–	–	7.6	46	–	0.94	5 (≈ 0.851 µg/mL)	63.9	–
Cc1cc(O)c(=O)c(O)cc1C(=O)Nc1ccc(F)cc1F [compound 711]	0.75 ± 0.3	184	0.32	4.5 (≈ 1.38 µg/mL)	4.6 ± 0.8	–	–	–	–	–	–	EC50 against HBV replication [1]: sub-micromolar; SI (CC50/EC50) ([1]; Table 2 amides): 10.2; SIApparent (huRH1 IC50/EC50) ([2]; Table 2 amides): 247
Cc1cc(O)c(=O)c(O)cc1C(=O)Nc1ccc(F)nc1 [compound 707]	0.54	148 ± 22.3	-0.18	36 (≈ 10.4 µg/mL)	19.4 ± 8.4	–	–	–	–	–	–	SI (CC50/EC50) ([1]; Table 2 amides): 36.2; SIApparent (huRH1 IC50/EC50) ([2]; Table 2 amides): 277
CCCCSc1ccc(SCCCC)c(O)c(=O)c1O [compound 694]	–	–	–	–	–	12.6	127	4.85	5.86	2 (≈ 0.629 µg/mL)	1.8	Therapeutic index (CC50/EC50) for HBV (TI, SI) [1]: 0.14
O=c1c(O)cccc(Sc2ccccc2)c1O [compound 691]	–	–	–	–	–	43.6	31.9	0.72	5.69	1 (≈ 0.246 µg/mL)	19.5	Reduction of HSV-1 titers / suppression of HSV-1 replication at 5 μM ([3]; 5 μM, plaque forming units (PFU)/ml): > 3 log10
